According to patent US5462725A, “2-pyridylmethylenepolyazamacrocyclophosphonic acids, complexes and derivatives thereof, for use as contrast agents” (priority 1993, dated 1995):
Read-outs that look alike come from different tables or passages of the source.

Assays:
[1] = Biodistribution of 153Sm complex after tail vein injection; assay type: in vivo, Sprague Dawley rats; details: rat, i.v. tail vein; for % INJECTED DOSE, Blood: blood assumed 6.5% of body weight; for % INJECTED DOSE, Bone: femur x 25; for % INJECTED DOSE, Muscle: muscle assumed 43% of body weight
Description: Sprague Dawley rats were allowed to acclimate for five days then injected with 100 μL of the complex solution via a tail vein. The rats weighed between 150 and 200 g at the time of injection. After 30 min. the rats were killed by cervical dislocation and dissected. The amount of radioactivity in each tissue was determined by counting in a NaI scintillation counter coupled to a multichannel analyzer. The counts were compared to the counts in 100 μL standards in order to determine the percentage of the dose in each tissue or organ.
The percent dose in blood was estimated assuming blood to be 6.5% of the total body weight. The percent dose in bone was estimated by multiplying the percent dose in the femur by 25. The percent dose in muscle was estimated assuming muscle to be 43% of the total body weight. The number of rats used in the average is n.
In addition to organ biodistribution, chelates of the compounds of Formula (I) were evaluated for efficiency of bone localization since phosphonates are known for their ability to bind to hydroxyapatite.
When the complex ^153 Sm[N-(2-pyridylmethyl)-N',N",N'"-tris(methylenephosphonic acid ethyl ester)-1,4,7,10-tetraazacyclododecane] The numbers represent the average of a minimum of 2 rats per data point at 2 hours post injection.
When the complex ^153 Sm[N-(2-pyridylmethyl)-N',N",N'"-tris(methylenephosphonic acid propyl ester)-1,4,7,10-tetraazacyclododecane] The numbers represent the average of a minimum of 3 rats per data point at 2 and 24 hours post injection.

[2] = in vivo; cited from earlier work
[3] = background; cited from earlier work
[4] = background; cited from earlier work; remark: listed apart in the source

Structure (SMILES) | % Complex (pH 1) [%] | % Complex (pH 3) [%] | % Complex (pH 5) [%] | % Complex (pH 7) [%] | % Complex (pH 9) [%] | % Complex (pH 11) [%] | % Complex (pH 14) [%] | % INJECTED DOSE, Brain ([1]; 2 hours post injection) [% INJECTED DOSE] | % INJECTED DOSE, Heart ([1]; 2 hours post injection) [% INJECTED DOSE] | % INJECTED DOSE, Kidney ([1]; 2 hours post injection) [% INJECTED DOSE] | % INJECTED DOSE, Liver ([1]; 2 hours post injection) [% INJECTED DOSE] | % INJECTED DOSE, Lung ([1]; 2 hours post injection) [% INJECTED DOSE] | % INJECTED DOSE, Spleen ([1]; 2 hours post injection) [% INJECTED DOSE] | % INJECTED DOSE, Urine ([1]; 2 hours post injection) [% INJECTED DOSE] | % INJECTED DOSE, Blood ([1]; 2 hours post injection) [% INJECTED DOSE] | % INJECTED DOSE, Bone ([1]; 2 hours post injection) [% INJECTED DOSE] | % INJECTED DOSE, Muscle ([1]; 2 hours post injection) [% INJECTED DOSE] | distribution and elimination [2] | side effects / toxicity [3] | other results
CCCOP(=O)([O-])CN1CCN(Cc2ccccn2)CCN(CP(=O)([O-])OCCC)CCN(CP(=O)([O-])OCCC)CC1.[153Sm+3] [^153 Sm-PD3PP, ^153 Sm[N-(2-pyridylmethyl)-N',N",N'"-tris(methylenephosphonic acid propyl ester)-1,4,7,10-tetraazacyclododecane]] | 72.52 | 87.56 | 92.99 | 95.06 | 95.22 | 92.74 | 87.65 | 0.04 | 0.04 | 0.86 | 20.36 | 0.20 | 1.19 | 50.00 | 0.68 | 5.93 | 0.82 |  |  | % INJECTED DOSE, Large Intestine ([1]; 2 hours post injection): 0.18 % INJECTED DOSE; % INJECTED DOSE, Small intestine ([1]; 2 hours post injection): 13.56 % INJECTED DOSE; % INJECTED DOSE, Stomach ([1]; 2 hours post injection): 1.39 % INJECTED DOSE; % INJECTED DOSE, Brain ([1]; 24 hours post injection): 0.00 % INJECTED DOSE; % INJECTED DOSE, Feces ([1]; 24 hours post injection): 5.33 % INJECTED DOSE; % INJECTED DOSE, Heart ([1]; 24 hours post injection): 0.02 % INJECTED DOSE; % INJECTED DOSE, Kidney ([1]; 24 hours post injection): 0.89 % INJECTED DOSE; % INJECTED DOSE, Large Intestine ([1]; 24 hours post injection): 0.16 % INJECTED DOSE; % INJECTED DOSE, Liver ([1]; 24 hours post injection): 2.31 % INJECTED DOSE; % INJECTED DOSE, Lung ([1]; 24 hours post injection): 0.40 % INJECTED DOSE; % INJECTED DOSE, Small intestine ([1]; 24 hours post injection): 0.13 % INJECTED DOSE; % INJECTED DOSE, Spleen ([1]; 24 hours post injection): 0.22 % INJECTED DOSE; % INJECTED DOSE, Stomach ([1]; 24 hours post injection): 0.04 % INJECTED DOSE; % INJECTED DOSE, Urine ([1]; 24 hours post injection): 83.00 % INJECTED DOSE; % INJECTED DOSE, Blood ([1]; 24 hours post injection): 0.03 % INJECTED DOSE; % INJECTED DOSE, Bone ([1]; 24 hours post injection): 12.39 % INJECTED DOSE; % INJECTED DOSE, Muscle ([1]; 24 hours post injection): 0.27 % INJECTED DOSE
O=C([O-])CN1CCN(CC(=O)[O-])CCN(Cc2ccccn2)CCN(CC(=O)[O-])CC1.[153Sm+3] [^153 Sm-PD3A] | 98.30 |  |  | 99.86 | 99.86 | 99.80 | 99.96 |  |  |  |  |  |  |  |  |  |  |  |  | % Complex (pH 2): 99.38%; % Complex (pH 4): 99.62%
CC(O)CN1CCN(CC(=O)[O-])CCN(CC(=O)[O-])CCN(CC(=O)[O-])CC1.[Gd+3] (stereo not drawn) [Prohance™, [1,4,7-tris(carboxymethyl)-10-(2-hydroxypropyl)-1,4,7,10-tetraazacyclododecanato]gadolinium] |  |  |  |  |  |  |  |  |  |  |  |  |  |  |  |  |  | freely distribute in extracellular fluid followed by efficient elimination through the renal system | fewer side effects than Magnevist™ | kinetic stability of DO3A derivative chelates [4]: gains added kinetic stability by virtue of a pendant hydroxyl moiety
CNC[C@H](O)[C@@H](O)[C@H](O)[C@H](O)CO.CNC[C@H](O)[C@@H](O)[C@H](O)[C@H](O)CO.O=C([O-])CN(CCN(CC(=O)[O-])CC(=O)O)CCN(CC(=O)[O-])CC(=O)O.[Gd+3] [Magnevist™, complex of gadolinium with diethylenetriaminepentaacetic acid] |  |  |  |  |  |  |  |  |  |  |  |  |  |  |  |  |  | freely distribute in extracellular fluid followed by efficient elimination through the renal system |  | 
CCOP(=O)([O-])CN1CCN(Cc2ccccn2)CCN(CP(=O)([O-])OCC)CCN(CP(=O)([O-])OCC)CC1.[153Sm+3] [^153 Sm-PD3EP, ^153 Sm[N-(2-pyridylmethyl)-N',N",N'"-tris(methylenephosphonic acid ethyl ester)-1,4,7,10-tetraazacyclododecane]] | 78.95 | 93.80 | 93.02 | 93.77 | 95.89 | 95.77 | 94.07 | 0.01 | 0.01 | 1.24 | 0.36 | 0.02 | 0.01 | 97.00 | 0.45 | 0.82 | 0.62 |  |  | 
[Cl][Gd]([Cl])[Cl] [GdCl3] |  |  |  |  |  |  |  |  |  |  |  |  |  |  |  |  |  |  | toxic to an animal | 
